Source: the NIST ThermoML archive (doi:10.1021/acs.jced.5b00845)

Assay: mn = molality of the nth substance listed, in mol/kg
Settings: 100 kPa, Liquid, Capillary tube (Ostwald / Ubbelohde) method

O=CC[C@H](O)[C@H](O)CO [2-deoxy-D-erythropentose] + O
viscosity [mPa·s]
Settings | m1 = 0.05709 | m1 = 0.07583 | m1 = 0.09188 | m1 = 0.09812 | m1 = 0.1124 | m1 = 0.1366 | m1 = 0.1466
288.15 K | 1.163 | 1.172 | 1.179 | 1.181 | 1.188 | 1.198 | 1.202
298.15 K | 0.909 | 0.915 | 0.92 | 0.922 | 0.927 | 0.935 | 0.938
308.15 K | 0.734 | 0.738 | 0.742 | 0.744 | 0.747 | 0.753 | 0.755
318.15 K | 0.607 | 0.611 | 0.614 | 0.615 | 0.618 | 0.623 | 0.624

O=C[C@H](O)[C@@H](O)[C@H](O)CO [D-xylose] + O
viscosity [mPa·s]
Settings | m1 = 0.05317 | m1 = 0.06636 | m1 = 0.07781 | m1 = 0.08585 | m1 = 0.1009 | m1 = 0.1145
288.15 K | 1.159 | 1.165 | 1.169 | 1.173 | 1.179 | 1.185
298.15 K | 0.906 | 0.91 | 0.914 | 0.917 | 0.921 | 0.925
308.15 K | 0.732 | 0.735 | 0.737 | 0.739 | 0.743 | 0.746
318.15 K | 0.606 | 0.608 | 0.61 | 0.612 | 0.614 | 0.618

C[C@@H]1O[C@@H](O)[C@H](O)[C@H](O)[C@H]1O [6-deoxy-α-L-mannopyranose] + O
viscosity [mPa·s]
Settings | m1 = 0.04655 | m1 = 0.05637 | m1 = 0.08317 | m1 = 0.0856 | m1 = 0.1109 | m1 = 0.1248 | m1 = 0.1471
288.15 K | 1.165 | 1.171 | 1.186 | 1.187 | 1.202 | 1.21 | 1.222
298.15 K | 0.91 | 0.914 | 0.925 | 0.926 | 0.937 | 0.943 | 0.952
308.15 K | 0.734 | 0.737 | 0.746 | 0.747 | 0.755 | 0.759 | 0.766
318.15 K | 0.608 | 0.61 | 0.617 | 0.618 | 0.623 | 0.627 | 0.632

O=C[C@H](O)[C@@H](O)[C@H](O[C@@H]1O[C@H](CO)[C@H](O)[C@H](O)[C@H]1O)[C@H](O)CO [4-O-β-D-galactopyranosyl-D-glucose] + O
viscosity [mPa·s]
Settings | m1 = 0.04915 | m1 = 0.0521 | m1 = 0.06429 | m1 = 0.07299 | m1 = 0.09149 | m1 = 0.1001 | m1 = 0.1211 | m1 = 0.1528
288.15 K | 1.198 | 1.202 | 1.216 | 1.227 | 1.249 | 1.259 | 1.284 | 1.321
298.15 K | 0.936 | 0.938 | 0.949 | 0.957 | 0.974 | 0.982 | 1 | 1.028
308.15 K | 0.755 | 0.757 | 0.766 | 0.772 | 0.785 | 0.791 | 0.806 | 0.828
318.15 K | 0.625 | 0.626 | 0.633 | 0.638 | 0.649 | 0.654 | 0.665 | 0.683

N.O=P(O)(O)O [ammonium dihydrogen phosphate] + O
viscosity [mPa·s]
Settings | 288.15 K | 298.15 K | 308.15 K | 318.15 K
m1 = 0.5 | 1.29 | 1.014 | 0.822 | 0.659
m1 = 1 | 1.472 | 1.172 | 0.942 | 0.741
m1 = 1.5 | 1.672 | 1.332 | 1.049 | 0.822
m1 = 2 | 1.831 | 1.463 | 1.161 | 0.908

CO[C@H]1O[C@H](CO)[C@@H](O)[C@H](O)[C@H]1O [methyl-α-D-glucopyranoside] + O
viscosity [mPa·s]
Settings | m1 = 0.06502 | m1 = 0.07733 | m1 = 0.09597 | m1 = 0.1109 | m1 = 0.1219 | m1 = 0.122 | m1 = 0.1465
288.15 K | 1.174 | 1.181 | 1.191 | 1.2 | 1.207 | 1.206 | 1.219
298.15 K | 0.917 | 0.922 | 0.929 | 0.935 | 0.941 | 0.94 | 0.95
308.15 K | 0.74 | 0.744 | 0.749 | 0.754 | 0.758 | 0.757 | 0.765
318.15 K | 0.612 | 0.615 | 0.619 | 0.623 | 0.625 | 0.626 | 0.631

O=P([O-])(O)O.[Na+] [sodium dihydrogen phosphate] + O
viscosity [mPa·s]
Settings | 288.15 K | 298.15 K | 308.15 K | 318.15 K
m1 = 0.5 | 1.427 | 1.093 | 0.88 | 0.723
m1 = 1 | 1.731 | 1.332 | 1.074 | 0.875
m1 = 1.5 | 2.139 | 1.63 | 1.267 | 1.051
m1 = 2 | 2.65 | 1.987 | 1.457 | 1.257

CO[C@H]1O[C@H](CO)[C@@H](O)[C@H](O)[C@@H]1O [α-methyl mannopyranoside] + O
viscosity [mPa·s]
Settings | m1 = 0.05551 | m1 = 0.0769 | m1 = 0.09681 | m1 = 0.1166 | m1 = 0.1344 | m1 = 0.1466 | m1 = 0.1632
288.15 K | 1.172 | 1.185 | 1.197 | 1.209 | 1.22 | 1.227 | 1.237
298.15 K | 0.916 | 0.925 | 0.934 | 0.943 | 0.951 | 0.956 | 0.964
308.15 K | 0.739 | 0.746 | 0.753 | 0.76 | 0.766 | 0.77 | 0.775
318.15 K | 0.611 | 0.617 | 0.623 | 0.628 | 0.633 | 0.636 | 0.64

OC[C@H]1O[C@@H](O[C@H]2[C@H](O)[C@@H](O)[C@H](O)O[C@@H]2CO)[C@H](O)[C@@H](O)[C@@H]1O [D-cellobiose] + O
viscosity [mPa·s]
Settings | m1 = 0.0502 | m1 = 0.06216 | m1 = 0.07229 | m1 = 0.08229 | m1 = 0.09269 | m1 = 0.1031 | m1 = 0.1292 | m1 = 0.152
288.15 K | 1.19 | 1.202 | 1.212 | 1.222 | 1.233 | 1.243 | 1.269 | 1.291
298.15 K | 0.929 | 0.938 | 0.946 | 0.953 | 0.961 | 0.969 | 0.988 | 1.005
308.15 K | 0.749 | 0.756 | 0.762 | 0.768 | 0.774 | 0.78 | 0.795 | 0.808
318.15 K | 0.62 | 0.625 | 0.63 | 0.635 | 0.64 | 0.644 | 0.656 | 0.666

OC[C@H]1O[C@@](CO)(O[C@H]2O[C@H](CO)[C@@H](O)[C@H](O)[C@H]2O)[C@@H](O)[C@@H]1O [D-sucrose] + O
viscosity [mPa·s]
Settings | m1 = 0.05768 | m1 = 0.06994 | m1 = 0.07682 | m1 = 0.08384 | m1 = 0.09221 | m1 = 0.1103 | m1 = 0.1237 | m1 = 0.1437
288.15 K | 1.205 | 1.219 | 1.227 | 1.235 | 1.244 | 1.265 | 1.28 | 1.302
298.15 K | 0.941 | 0.951 | 0.957 | 0.963 | 0.97 | 0.986 | 0.997 | 1.014
308.15 K | 0.758 | 0.766 | 0.771 | 0.776 | 0.781 | 0.793 | 0.802 | 0.815
318.15 K | 0.627 | 0.634 | 0.637 | 0.641 | 0.645 | 0.655 | 0.662 | 0.672

O=P([O-])(O)O.[K+] [monopotassium phosphate] + O
viscosity [mPa·s]
Settings | 288.15 K | 298.15 K | 308.15 K | 318.15 K
m1 = 0.25 | 1.236 | 0.972 | 0.777 | 0.633
m1 = 0.5 | 1.301 | 1.025 | 0.815 | 0.666
m1 = 1 | 1.539 | 1.159 | 0.939 | 0.763
m1 = 1.25 | 1.636 | 1.294 | 1.027 | 0.84

O=C[C@H](O)[C@H](O)[C@H](O)CO [D-ribose] + O
viscosity [mPa·s]
Settings | m1 = 0.05682 | m1 = 0.06586 | m1 = 0.07814 | m1 = 0.09455 | m1 = 0.1051 | m1 = 0.1285
288.15 K | 1.159 | 1.163 | 1.168 | 1.174 | 1.178 | 1.187
298.15 K | 0.906 | 0.909 | 0.912 | 0.917 | 0.919 | 0.926
308.15 K | 0.731 | 0.733 | 0.736 | 0.739 | 0.741 | 0.746
318.15 K | 0.605 | 0.607 | 0.609 | 0.612 | 0.614 | 0.618

O=C[C@H](O)[C@@H](O)[C@H](O)[C@H](O)CO [D-glucose] + O
viscosity [mPa·s]
Settings | m1 = 0.05335 | m1 = 0.06616 | m1 = 0.08424 | m1 = 0.1038 | m1 = 0.1142 | m1 = 0.1323
288.15 K | 1.167 | 1.175 | 1.185 | 1.196 | 1.202 | 1.211
298.15 K | 0.912 | 0.918 | 0.924 | 0.932 | 0.936 | 0.943
308.15 K | 0.736 | 0.74 | 0.744 | 0.75 | 0.754 | 0.759
318.15 K | 0.609 | 0.612 | 0.616 | 0.621 | 0.623 | 0.628

O=C[C@@H](O)[C@@H](O)[C@H](O)[C@H](O)CO [D-mannose] + O
viscosity [mPa·s]
Settings | m1 = 0.0537 | m1 = 0.07266 | m1 = 0.08053 | m1 = 0.08978 | m1 = 0.1058 | m1 = 0.1176
288.15 K | 1.169 | 1.179 | 1.184 | 1.189 | 1.199 | 1.206
298.15 K | 0.912 | 0.92 | 0.924 | 0.928 | 0.934 | 0.939
308.15 K | 0.736 | 0.741 | 0.744 | 0.747 | 0.753 | 0.756
318.15 K | 0.609 | 0.614 | 0.616 | 0.618 | 0.622 | 0.625

OC[C@H]1OC(O)C[C@@H](O)[C@@H]1O (stereo partly drawn) [2-deoxy-D-glucose] + O
viscosity [mPa·s]
Settings | m1 = 0.04241 | m1 = 0.05017 | m1 = 0.05842 | m1 = 0.08671 | m1 = 0.09745 | m1 = 0.1223 | m1 = 0.141
288.15 K | 1.16 | 1.164 | 1.168 | 1.182 | 1.188 | 1.2 | 1.21
298.15 K | 0.907 | 0.909 | 0.913 | 0.923 | 0.927 | 0.936 | 0.943
308.15 K | 0.732 | 0.734 | 0.736 | 0.744 | 0.747 | 0.754 | 0.76
318.15 K | 0.606 | 0.608 | 0.609 | 0.616 | 0.618 | 0.624 | 0.628
